Source: US10023543B2 (CELGENE QUANTICEL RESEARCH, INC., priority 2014, dated 2018)

test system: THP-1 (AML) cells; experiment: LSD1 CD11b cellular assay (flow cytometry); type: cell-based; settings: Homo sapiens, THP-1, 96 h; CD11b expressing cells, 4 days; read-out: THP-1 IC50

Row | IC50 | SMILES
1 | < 0.1 µM | CNC1CCN(c2nc(-c3ccc(C#N)c(F)c3)c(-c3ccc(OC)nc3)c(=O)n2C)CC1 [Example 58, 2-fluoro-4-[5-(6-methoxy-pyridin-3-yl)-1-methyl-2-(4-methylamino-piperidin-1-yl)-6-oxo-1,6-dihydro-pyrimidin-4-yl]-benzonitrile]
2 | < 0.1 µM | CNC(=O)c1ccc(-c2c(-c3ccc(C#N)c(F)c3)nc(N3CCC(N)CC3)n(C)c2=O)cn1 [Example 50, 5-[2-(4-amino-piperidin-1-yl)-4-(4-cyano-3-fluoro-phenyl)-1-methyl-6-oxo-1,6-dihydro-pyrimidin-5-yl]-pyridine-2-carboxylic acid methylamide]
3 | 0.1 to 1 µM | CCc1ccc(-c2c(-c3ccc(C#N)cc3)nc(N3CCC(N)CC3)n(C)c2=O)cn1 [Example 10, 4-[2-(4-amino-piperidin-1-yl)-5-(6-ethyl-pyridin-3-yl)-1-methyl-6-oxo-1,6-dihydro-pyrimidin-4-yl]-benzonitrile]
4 | < 0.1 µM | Cn1c(N2CCC(N)CC2)nc(-c2ccc(C#N)c(F)c2)c(-c2cc(F)cc(F)c2)c1=O [Example 103, 4-[2-(4-aminopiperidin-1-yl)-5-(3,5-difluorophenyl)-1-methyl-6-oxopyrimidin-4-yl]-2-fluorobenzonitrile]
5 | < 0.1 µM | CN(C)C1CCN(c2nc(-c3ccc(C#N)c(F)c3)c(-c3ccc4cn[nH]c4c3)c(=O)n2C)CC1 [Example 84, 4-[2-(4-dimethylamino-piperidin-1-yl)-5-(2H-indazol-6-yl)-1-methyl-6-oxo-1,6-dihydro-pyrimidin-4-yl]-2-fluoro-benzonitrile]
6 | < 0.1 µM | CN(C)c1ccc(-c2c(-c3ccc(C#N)c(F)c3)nc(N3CCC(N)CC3)n(C)c2=O)cc1 [Example 59, 4-[2-(4-amino-piperidin-1-yl)-5-(4-dimethylamino-phenyl)-1-methyl-6-oxo-1,6-dihydro-pyrimidin-4-yl]-2-fluoro-benzonitrile]
7 | < 0.1 µM | CCOc1ccc(-c2c(-c3ccc(C#N)c(F)c3)nc(N3CCC(N)CC3)n(C)c2=O)cc1 [Example 95, 4-[2-(4-aminopiperidin-1-yl)-5-(4-ethoxyphenyl)-1-methyl-6-oxopyrimidin-4-yl]-2-fluorobenzonitrile]
8 | < 0.1 µM | Cn1c(N2CCC(N)CC2)nc(-c2ccc(C#N)c(F)c2)c(-c2ccc(Cl)cc2)c1=O [Example 106, 4-[2-(4-aminopiperidin-1-yl)-5-(4-chlorophenyl)-1-methyl-6-oxopyrimidin-4-yl]-2-fluorobenzonitrile]
9 | < 0.1 µM | CNC1CCN(c2nc(-c3ccc(C#N)c(F)c3)c(-c3ccc(OC)c(F)c3)c(=O)n2C)CC1 [Example 12, 2-fluoro-4-[5-(3-fluoro-4-methoxy-phenyl)-1-methyl-2-(4-methylamino-piperidin-1-yl)-6-oxo-1,6-dihydro-pyrimidin-4-yl]-benzonitrile]
10 | < 0.1 µM | COc1ccc(-c2c(-c3ccc(C#N)c(F)c3)nc(N3CCC[C@H](N)C3)n(C)c2=O)cc1 [Example 31, 4-[2-((3S)-3-amino-piperidin-1-yl)-5-(4-methoxy-phenyl)-1-methyl-6-oxo-1,6-dihydro-pyrimidin-4-yl]-2-fluoro-benzonitrile]
11 | < 0.1 µM | COc1ncc(-c2c(-c3ccc(C#N)c(F)c3)nc(N3CCC(N)CC3)n(C)c2=O)cc1F [Example 26, 4-[2-(4-aminopiperidyl)-5-(5-fluoro-6-methoxy(3-5,6-dihydropyridyl))-1-methyl-6-oxohydropyrimidin-4-yl]-2-fluorobenzenecarbonitrile]
12 | < 0.1 µM | Cn1c(N2CCC(N)CC2)nc(-c2ccc(C#N)c(F)c2)c(-c2ccc3[nH]ccc3c2)c1=O [Example 73, 4-[2-(4-amino-piperidin-1-yl)-5-(1H-indol-5-yl)-1-methyl-6-oxo-1,6-dihydro-pyrimidin-4-yl]-2-fluoro-benzonitrile]
13 | < 0.1 µM | COc1ccc(-c2c(-c3ccc(C#N)c(F)c3)nc(N3CCC(N(C)C)CC3)n(C)c2=O)cn1 [Example 92, 4-[2-[4-(dimethylamino)piperidin-1-yl]-5-(6-methoxypyridin-3-yl)-1-methyl-6-oxopyrimidin-4-yl]-2-fluorobenzonitrile]
14 | < 0.1 µM | CN(C)C1CCN(c2nc(-c3ccc(C#N)c(F)c3)c(-c3ccc4c(cnn4C)c3)c(=O)n2C)CC1 [Example 72, 4-[2-(4-dimethylamino-piperidin-1-yl)-1-methyl-5-(1-methyl-1H-indazol-5-yl)-6-oxo-1,6-dihydro-pyrimidin-4-yl]-2-fluoro-benzonitrile]
15 | 0.1 to 1 µM | Cn1c(N2CCC(N)CC2)nc(-c2ccc(C#N)c(F)c2)c(Cl)c1=O [Example 20, 4-[2-(4-aminopiperidin-1-yl)-5-chloro-1-methyl-6-oxopyrimidin-4-yl]-2-fluorobenzonitrile]
16 | < 0.1 µM | Cn1c(N2CCC(N)CC2)nc(-c2ccc(C#N)c(F)c2)c(-c2ccc3cc[nH]c3c2)c1=O [Example 75, 4-[2-(4-amino-piperidin-1-yl)-5-(1H-indol-6-yl)-1-methyl-6-oxo-1,6-dihydro-pyrimidin-4-yl]-2-fluoro-benzonitrile]
17 | < 0.1 µM | Cn1c(N2CCC(N)CC2)nc(-c2ccc(C#N)c(F)c2)c(-c2ccc3c(ccn3C)c2)c1=O [Example 74, 4-[2-(4-amino-piperidin-1-yl)-1-methyl-5-(1-methyl-1H-indol-5-yl)-6-oxo-1,6-dihydro-pyrimidin-4-yl]-2-fluoro-benzonitrile]

Continued, molecule first:

Row | SMILES | IC50
18 | CN(C)c1ccc(-c2c(-c3ccc(C#N)cc3)nc(N3CCCNCC3)n(C)c2=O)cn1 [Example 67, 4-[2-[1,4]diazepan-1-yl-5-(6-dimethylamino-pyridin-3-yl)-1-methyl-6-oxo-1,6-dihydro-pyrimidin-4-yl]-benzonitrile] | < 0.1 µM
19 | COc1ccc(-c2c(-c3ccc(C#N)c(F)c3)nc(N(C)C[C@@H]3CCNC3)n(C)c2=O)cc1 (stereo in doubt) [Example 56, 2-fluoro-4-[5-(4-methoxy-phenyl)-1-methyl-2-(methyl-pyrrolidin-3-ylmethyl-amino)-6-oxo-1,6-dihydro-pyrimidin-4-yl]-benzonitrile] | < 0.1 µM
20 | COc1ccc(-c2c(-c3ccc(C#N)c(F)c3)nc(N(C)C[C@H]3CCNC3)n(C)c2=O)cc1 [Example 54, 2-fluoro-4-[5-(4-methoxy-phenyl)-1-methyl-2-(methyl-(3S)-pyrrolidin-3-ylmethyl-amino)-6-oxo-1,6-dihydro-pyrimidin-4-yl]-benzonitrile] | < 0.1 µM
21 | COc1ccc(-c2c(-c3ccc(C#N)c(F)c3)nc(N3CCNCC3)n(C)c2=O)cc1F [Example 47, 2-fluoro-4-[5-(3-fluoro-4-methoxy-phenyl)-1-methyl-6-oxo-2-piperazin-1-yl-1,6-dihydro-pyrimidin-4-yl]-benzonitrile] | 0.1 to 1 µM
22 | Cn1c(N2CCC(N)CC2)nc(-c2ccc(C#N)cc2)c(-c2ccc3c(cnn3C)c2)c1=O [Example 33, 4-[2-(4-aminopiperidyl)-1-methyl-5-(1-methyl(1H-indazol-5-yl))-6-oxohydropyrimidin-4-yl]benzenecarbonitrile] | < 0.1 µM
23 | Cn1c(N2CCC(N)CC2)nc(-c2ccc(C#N)c(F)c2)cc1=O [Example 108, 4-[2-(4-aminopiperidin-1-yl)-1-methyl-6-oxopyrimidin-4-yl]-2-fluorobenzonitrile] | 0.1 to 1 µM
24 | COc1ccc(-c2c(-c3ccc(C#N)c(F)c3)nc(N3CC[C@@H](N)[C@@H](F)C3)n(C)c2=O)cc1 [Example 78, 4-[2-((4R,3S)-4-amino-3-fluoro-piperidin-1-yl)-5-(4-methoxy-phenyl)-1-methyl-6-oxo-1,6-dihydro-pyrimidin-4-yl]-2-fluoro-benzonitrile] | < 0.1 µM
25 | CN(C)C1CCN(c2nc(-c3ccc(C#N)c(F)c3)c(-c3ccc4cn(C)nc4c3)c(=O)n2C)CC1 [Example 80, 4-[2-(4-dimethylamino-piperidin-1-yl)-1-methyl-5-(2-methyl-2H-indazol-6-yl)-6-oxo-1,6-dihydro-pyrimidin-4-yl]-2-fluoro-benzonitrile] | < 0.1 µM
26 | COc1ccc(-c2c(-c3ccc(C#N)cc3)nc(NC3CCNCC3)n(C)c2=O)cc1F [Example 48, 4-[5-(3-fluoro-4-methoxy-phenyl)-1-methyl-6-oxo-2-(piperidin-4-ylamino)-1,6-dihydro-pyrimidin-4-yl]-benzonitrile] | 0.1 to 1 µM
27 | COc1ccc(-c2c(-c3ccc(C#N)c(F)c3)nc(N3CC(N)C3)n(C)c2=O)cc1 [Example 64, 4-[2-(3-amino-azetidin-1-yl)-5-(4-methoxy-phenyl)-1-methyl-6-oxo-1,6-dihydro-pyrimidin-4-yl]-2-fluoro-benzonitrile] | 0.1 to 1 µM
28 | Cn1c(N2CCC(N)CC2)nc(-c2ccc(C#N)c(F)c2)c(C#CC2CCCC2)c1=O [Example 14, 4-[2-(4-amino-piperidin-1-yl)-5-cyclopentylethynyl-1-methyl-6-oxo-1,6-dihydro-pyrimidin-4-yl]-2-fluoro-benzonitrile] | < 0.1 µM
29 | COc1ccc(-c2c(-c3ccc(C#N)cc3)nc(N3CCCNCC3)n(C)c2=O)cn1 [Example 62] | 0.1 to 1 µM
30 | COc1ccc(-c2c(-c3ccc(C#N)c(F)c3)nc(N3CCC[C@@H](N)C3)n(C)c2=O)cc1F [Example 25, 4-[2-((3R)-3-aminopiperidyl)-5-(3-fluoro-4-methoxyphenyl)-1-methyl-6-oxohydropyrimidin-4-yl]-2-fluorobenzenecarbonitrile] | < 0.1 µM
31 | COc1ccc(-c2c(-c3ccc(C#N)cc3)nc(NC[C@@H]3CCNC3)n(C)c2=O)cc1F [Example 45, 4-{5-(3-fluoro-4-methoxy-phenyl)-1-methyl-6-oxo-2-[(3R)-(pyrrolidin-3-ylmethyl)-amino]-1,6-dihydro-pyrimidin-4-yl}-benzonitrile] | 0.1 to 1 µM
32 | COc1ccc(-c2c(-c3ccc(C#N)c(F)c3)nc(NC3CCNCC3)n(C)c2=O)cc1 [Example 53, 2-fluoro-4-[5-(4-methoxy-phenyl)-1-methyl-6-oxo-2-(piperidin-4-ylamino)-1,6-dihydro-pyrimidin-4-yl]-benzonitrile] | 0.1 to 1 µM
33 | COc1ccc(-c2c(-c3ccc(C#N)c(F)c3)nc(N3CC[C@H](N)[C@H](F)C3)n(C)c2=O)cc1 [Example 79, 4-[2-((4S,3R)-4-amino-3-fluoro-piperidin-1-yl)-5-(4-methoxy-phenyl)-1-methyl-6-oxo-1,6-dihydro-pyrimidin-4-yl]-2-fluoro-benzonitrile] | < 0.1 µM
